The experiment deals with P388 leukemia ip, CD2F1 mice, survival T/C. In words: NCI In Vivo Anticancer Drug Screen. Data for tumor model P388 Leukemia (intraperitoneal) in CD2F1 (CDF1) mice. The note with it: endpoint: median survival time, higher = longer survival. The essentials:
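Mice carrying the transplanted tumor received test compound or vehicle. Survival was recorded in each group, and the value is the treated-group measurement divided by that of the vehicle-treated control group.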

Where [1] appears, read: dose: 50.0 mg/kg/injection, schedule: Q01DX005 (ip), vehicle: Klucel (hydroxypropylcellulose) (HPC).
The mark [2] stands for this setting: dose: 100.0 mg/kg/injection, schedule: Q01DX005 (ip), vehicle: Klucel (hydroxypropylcellulose) (HPC).
[3] abbreviates: dose: 200.0 mg/kg/injection, schedule: Q01DX005 (ip), vehicle: Klucel (hydroxypropylcellulose) (HPC).
The mark [4] stands for this setting: dose: 25.0 mg/kg/injection, schedule: Q01DX009 (ip), vehicle: saline with Tween-80.
Setting [5] is: dose: 50.0 mg/kg/injection, schedule: Q01DX009 (ip), vehicle: saline with Tween-80.
The mark [6] stands for this setting: dose: 100.0 mg/kg/injection, schedule: Q01DX009 (ip), vehicle: saline with Tween-80.
Where [7] appears, read: dose: 60.0 mg/kg/injection, schedule: Q01DX005 (ip), vehicle: saline with Tween-80.
[8] abbreviates: dose: 120.0 mg/kg/injection, schedule: Q01DX005 (ip), vehicle: saline with Tween-80.
Where [9] appears, read: dose: 240.0 mg/kg/injection, schedule: Q01DX005 (ip), vehicle: saline with Tween-80.
Where [10] appears, read: dose: 50.0 mg/kg/injection, schedule: Q01DX009 (ip), vehicle: Klucel (hydroxypropylcellulose) (HPC).
The mark [11] stands for this setting: dose: 100.0 mg/kg/injection, schedule: Q01DX009 (ip), vehicle: Klucel (hydroxypropylcellulose) (HPC).
Where [12] appears, read: dose: 200.0 mg/kg/injection, schedule: Q01DX009 (ip), vehicle: Klucel (hydroxypropylcellulose) (HPC).
Setting [13] is: dose: 30.0 mg/kg/injection, schedule: Q01DX005 (ip), vehicle: saline with Tween-80.
Setting [14] is: dose: 200.0 mg/kg/injection, schedule: Q01DX009 (ip), vehicle: saline with Tween-80.
Setting [15] is: dose: 50.0 mg/kg/injection, schedule: Q01DX005 (ip), vehicle: saline with Tween-80.
Setting [16] is: dose: 100.0 mg/kg/injection, schedule: Q01DX005 (ip), vehicle: saline with Tween-80.
The mark [17] stands for this setting: dose: 200.0 mg/kg/injection, schedule: Q01DX005 (ip), vehicle: saline with Tween-80.

Several values for one entry are separate records, joined by “and”; a condition that tells them apart may be missing. Equal entries are not always repeated. Inconclusive results and toxic doses are left out.

For `Oc1c(Cl)cc(Cl)cc1/C=N\NC(=S)Nc1ccccc1`, the T/C was 97 % of control (dose: 100.0 mg/kg/injection, schedule: Q04DX002 (ip), vehicle: Klucel (hydroxypropylcellulose) (HPC)) and 95 % of control (dose: 200.0 mg/kg/injection, schedule: Q04DX002 (ip), vehicle: Klucel (hydroxypropylcellulose) (HPC)).
As to `CCOC(=O)C1=C(C)NC(=O)NC1c1ccc(N(C)C)cc1` (stereo unspecified), the T/C is, setting by setting: under setting [1], 90 % of control; under setting [2], 95 % of control; under setting [3], 97 % of control.
Regarding `CCOC(=O)C[N+]12CCC34c5cc(OC)c(OC)cc5N5C(=O)CC6OCC=C(C1)C(CC32)C6C54` (stereo unspecified), the T/C by setting is: (dose: 1.56 mg/kg/injection, schedule: Q01DX009 (ip), vehicle: saline with Tween-80) 100 % of control and 108 % of control; (dose: 3.12 mg/kg/injection, schedule: Q01DX009 (ip), vehicle: saline with Tween-80) 100 % of control and 108 % of control; under setting [4], 105 % of control (2×) and 94 % of control; under setting [5], 105 % of control and 111 % of control and 95 % of control; under setting [6], 105 % of control and 111 % of control and 98 % of control.
In the case of `CS(=O)CCCN=C=S` (stereo unspecified), the T/C is, setting by setting: (dose: 18.75 mg/kg/injection, schedule: Q01DX009 (ip), vehicle: saline with Tween-80) 111 % of control; (dose: 37.5 mg/kg/injection, schedule: Q01DX009 (ip), vehicle: saline with Tween-80) 110 % of control; (dose: 75.0 mg/kg/injection, schedule: Q01DX009 (ip), vehicle: saline with Tween-80) 111 % of control.
For the compound `C[n+]1ccn2cc(S(=O)(=O)[O-])ccc21`, the T/C was 92 % of control (dose: 3.12 mg/kg/injection, schedule: Q01DX009 (ip), vehicle: saline) and 95 % of control (dose: 6.25 mg/kg/injection, schedule: Q01DX009 (ip), vehicle: saline).
Turning to `CNC(=O)OCc1c(COC(=O)NC)c2n(c1C)-c1ccccc1CCC2`, the T/C is, setting by setting: (dose: 2.5 mg/kg/injection, schedule: Q01DX005 (ip), vehicle: Klucel (hydroxypropylcellulose) (HPC)) 154 % of control; (dose: 10.0 mg/kg/injection, schedule: Q01DX005 (ip), vehicle: Klucel (hydroxypropylcellulose) (HPC)) 152 % of control.
On to `C[O+]=c1ccc2ccc(-c3ccccc3)sc-2c1`, for which the T/C reads like this: (dose: 60.0 mg/kg/injection, schedule: Q01DX005 (ip), vehicle: Klucel (hydroxypropylcellulose) (HPC)) 106 % of control; (dose: 120.0 mg/kg/injection, schedule: Q01DX005 (ip), vehicle: Klucel (hydroxypropylcellulose) (HPC)) 105 % of control.
`CC(C)CC(C(=O)O)N(C)C(=O)OC(C)(C)C` (stereo unspecified): the T/C is, setting by setting: under setting [1], 101 % of control; under setting [2], 93 % of control; under setting [3], 99 % of control.
Turning to `CCCCC(=O)N/N=C(\C)[C@]1(O)Cc2c(O)c3c(c(O)c2[C@@H](OC2CC(N)C(O)C(C)O2)C1)C(=O)c1c(OC)cccc1C3=O` (stereo partly specified), the T/C was 117 % of control (dose: 0.12 mg/kg/injection, schedule: Q01DX009 (ip), vehicle: water); 122 % of control (dose: 0.25 mg/kg/injection, schedule: Q01DX009 (ip), vehicle: water); 155 % of control (dose: 0.5 mg/kg/injection, schedule: Q01DX009 (ip), vehicle: water); 190 % of control (dose: 1.0 mg/kg/injection, schedule: Q01DX009 (ip), vehicle: water); 180 % of control and 190 % of control (dose: 2.0 mg/kg/injection, schedule: Q01DX009 (ip), vehicle: water); 195 % of control and 238 % of control (dose: 4.0 mg/kg/injection, schedule: Q01DX009 (ip), vehicle: water). Moreover, the T/C (dose: 8.0 mg/kg/injection, schedule: Q01DX009 (ip), vehicle: water) was 152 % of control and 247 % of control.
In the case of `Cc1[nH]c(/N=C/c2ccc(N(C)C)cc2)c(C#N)c1C`, the T/C by setting is: under setting [7], 91 % of control; under setting [8], 90 % of control; under setting [9], 97 % of control.
Turning to `CC(C)n1c(=O)nc(-c2ccccc2)c2cc3c(cc21)OCO3`, the T/C under setting [10] was 106 % of control, the T/C under setting [11] is 108 % of control and the T/C under setting [12] is 91 % of control.
On to `COc1ccc(C(=O)/C(C)=C(/C)NCCC#N)c(OCc2ccccc2)c1OC`, for which the T/C is, setting by setting: (dose: 25.0 mg/kg/injection, schedule: Q01DX009 (ip), vehicle: other) 95 % of control; (dose: 50.0 mg/kg/injection, schedule: Q01DX009 (ip), vehicle: other) 91 % of control; (dose: 100.0 mg/kg/injection, schedule: Q01DX009 (ip), vehicle: other) 95 % of control; (dose: 200.0 mg/kg/injection, schedule: Q01DX009 (ip), vehicle: other) 100 % of control; (dose: 400.0 mg/kg/injection, schedule: Q01DX009 (ip), vehicle: other) 95 % of control.
In the case of `c1csc(-c2ccn[nH]2)c1`, the T/C is 100 % of control (dose: 15.0 mg/kg/injection, schedule: Q01DX005 (ip), vehicle: saline with Tween-80); 100 % of control under setting [13]; 116 % of control and 91 % of control under setting [7].
On to `c1ccc2[nH]c(CN(CCN(Cc3nc4ccccc4[nH]3)Cc3nc4ccccc4[nH]3)Cc3nc4ccccc4[nH]3)nc2c1`, for which the T/C was 104 % of control (dose: 1.56 mg/kg/injection, schedule: Q01DX005 (ip), vehicle: DMSO); 106 % of control (dose: 3.12 mg/kg/injection, schedule: Q01DX005 (ip), vehicle: DMSO); 105 % of control (dose: 6.25 mg/kg/injection, schedule: Q01DX005 (ip), vehicle: DMSO); 107 % of control (dose: 12.5 mg/kg/injection, schedule: Q01DX005 (ip), vehicle: DMSO); 108 % of control (dose: 25.0 mg/kg/injection, schedule: Q01DX005 (ip), vehicle: DMSO).
For the compound `Cc1nn(-c2nc(-c3ccccc3)cs2)c(C)c1C`, the T/C under setting [10] was 98 % of control, the T/C under setting [11] was 96 % of control and the T/C under setting [12] was 101 % of control.
In the case of `c1ccc(C2=NC3CCCC[C@H]3O2)cc1` (stereo partly specified), the T/C reads like this: under setting [13], 108 % of control; under setting [7], 101 % of control and 96 % of control; under setting [8], 105 % of control; under setting [9], 100 % of control.
`c1ccc2c(c1)Nc1ccc3ccccc3c1S2`: the T/C is, setting by setting: under setting [4], 98 % of control; under setting [5], 105 % of control; under setting [6], 96 % of control; under setting [14], 108 % of control.
For `Nc1ncnn1Cc1ccccc1`, the T/C under setting [4] is 104 % of control, the T/C under setting [5] is 100 % of control, the T/C under setting [6] was 101 % of control and the T/C under setting [14] was 102 % of control.
On to `CC(=O)CC(C)(C)C(C#N)c1ccccc1` (stereo unspecified), for which the T/C by setting is: (dose: 100.0 mg/kg/injection, schedule: Q04DX003 (ip), vehicle: Klucel (hydroxypropylcellulose) (HPC)) 99 % of control; (dose: 200.0 mg/kg/injection, schedule: Q04DX003 (ip), vehicle: Klucel (hydroxypropylcellulose) (HPC)) 115 % of control; (dose: 400.0 mg/kg/injection, schedule: Q04DX003 (ip), vehicle: Klucel (hydroxypropylcellulose) (HPC)) 98 % of control.
Turning to `Cc1nc2c(ncn2C2OC(CO)C(O)C2O)c(=O)[nH]1` (stereo unspecified), the T/C was 96 % of control (dose: 50.0 mg/kg/injection, schedule: Q04DX003 (ip), vehicle: saline with Tween-80); 101 % of control (dose: 100.0 mg/kg/injection, schedule: Q04DX003 (ip), vehicle: saline with Tween-80); 109 % of control (dose: 200.0 mg/kg/injection, schedule: Q04DX003 (ip), vehicle: saline with Tween-80); 111 % of control (dose: 400.0 mg/kg/injection, schedule: Q04DX003 (ip), vehicle: saline with Tween-80).
As to `CCB1OC2OC3C4OB(CC)OC4OC3C2O1` (stereo unspecified), the T/C under setting [15] was 103 % of control, the T/C under setting [16] was 103 % of control and the T/C under setting [17] is 103 % of control.
Turning to `CCCN(CCC)C(C)C(O)c1cc2c(c3ccccc13)CCCC2` (stereo unspecified), the T/C is 109 % of control under setting [11] and 93 % of control under setting [12].
On to `CC(OCc1ccccc1)C(NC(=O)OC(C)(C)C)C(=O)O` (stereo unspecified), for which the T/C reads like this: under setting [1], 113 % of control; under setting [15], 103 % of control; under setting [2], 94 % of control; under setting [16], 100 % of control; under setting [3], 96 % of control; under setting [17], 98 % of control.

(Values after PubChem BioAssay AID330 (DTP/NCI, 2004).)
